Where two headings read alike, the source gives them in different places. A value given as a limit tells only on which side of the number the result lay.

What all share (assay type): in vivo
One experiment has as its system Ixodes ricinus. Put plainly: whole plant or invertebrate. The settings on record: for pest or weed control at 1 µg/cm2, 1 µg/cm2 / pest or weed control at 5 µg/cm2, 5 µg/cm2 / pest or weed control at 25 µg/cm2, 25 µg/cm2: Ixodes ricinus, read-out: mean percentage of ticks affected; for tick response compared with the benchmark IR3535: concentrations tested.
Experiment [1] concerns Aedes aegypti. Put plainly: in vitro Warm Body assay, substance applied on glass Petri dish on top of the warm body (deterrence and repellence). On the procedure:
(§1) The controlling effect, repellence & spatial repellence, according to the present invention is determined by testing the Warm Body assay against the yellow fever mosquito, Aedes aegypti Rockefeller strain. […] Observations of controlling efficacy were made on host-seeking females of uniform age, 5 to 10 days old selected as mentioned in the publication mentioned hereinabove. Tested hungry females had access to 10% sugar solution but were not blood-fed. Further information is provided in the accompanying examples.
(§2) The published protocol has been adapted in not manually counting the landing mosquitoes but automatically using an automatic counting software, the switch from Anopheles gambiae to A. aegypti led to a decrease of mosquitoes’ number placed in the tested cage due to the size difference (i.e. 30 mosquitoes instead of 50) and to an increase of lighting as A. aegypti is a diurnal mosquitoes (i.e. 150 lux instead of 4 lux). Further information is provided in the accompanying examples.,
(§3) The controlling effect of the compositions according to the present invention was assessed using an adapted Warm Body assay as defined in Kröber T, Kessler S, Frei J, Bourquin M, Guerin PM. 2010. An in vitro assay for testing mosquito controlling compounds employing a warm body and carbon dioxide as a behavioral activator. J Am Mosq Control Assoc. 26:381-386. In this in-vitro assay the number of mosquito landing on a warm body, simulating an attractive host treated with the tested stimuli, was measured in order to assess the repellence effect.
(§4) The published protocol has been adapted in not manually counting the landing mosquitoes but automatically using an automatic counting software, the switch from Anopheles gambiae to Aedes aegypti led to a decrease of mosquitoes’ number placed in the tested cage due to the size difference (i.e. 30 mosquitoes instead of 50) and to an increase of lighting as A. aegypti is a diurnal mosquitoes (i.e. 150 lux instead of 4 lux).
(§5) In addition, since the inventors were interested by assessing spatial repellence added or not to a deterrent effect, the substance was applied using two different technics. Whether, as in Kröber et al. (2010), both deterrent and repellent effect were investigated (i.e. similar effect than most body care applications such as lotion) and the substances was applied on a sandblasted glass Petri dish placed on top of the warm body. Whether only the spatial repellence was investigated (i.e. similar effect than most home care applications such as liquid electric dispenser) and the substance was introduced in the cage space thanks to a forced evaporation system as described in Chappuis C J-F, Niclass Y, Vuilleumier C, Starkenmann C. 2015. Quantitative Headspace Analysis of Selected Odorants from Latrines in Africa and India. Environ. Sci. Technol. 49:6134-6140.
(§6) As stated in Kröber et al. (2010), selected 10-12 days old hungry females, that had ad libitum access to 10% sugar solution but were not blood-fed, were selected for the assay.
On the sandblasted glass Petri dish covering the warm body (28.3 cm^2), 100 µL of the substances diluted at different concentrations in ethanol was applied. The number of mosquito landing on the warm body was counted for each stimuli, N,N-diethyl-3-methylbenzamide (DEET) and ethyl 3-[acetyl(butyl)amino]propanoate (IR3535) being used as benchmarks and pure ethanol as control.

Experiment [2] deals with Aedes aegypti. Put plainly: in vitro Warm Body assay, substance introduced in the cage air by forced evaporation (spatial repellence). The settings on record: for landings in 2 minutes: dose of 0.17 µg/L of air. On the procedure: as §1, §2, §3, §4, §5, §6
The forced evaporation system allows to fill the volume of the cage with stimuli tested, (2-methyl-4-oxo-3-prop-2-ynylcyclopent-2-en-1-yl) 2,2-dimethyl-3-(2-methylprop-1-enyl)cyclopropane-1-carboxylate (prallethrin) and N,N-diethyl-3-methylbenzamide (DEET) being used as benchmarks. In order to limit potential dead volumes in the cage, five flushes of the cage were made before starting the 2 minutes test during which the number of mosquito landings was counted.

Setting [3] is: 1 µg/cm^2, diluted in ethanol, ethanol control 1.0±1.2%.
Where [4] appears, read: 5 µg/cm^2, diluted in ethanol, ethanol control 1.0±1.2%.
Where [5] appears, read: 25 µg/cm^2, diluted in ethanol, ethanol control 1.0±1.2%.
Where [6] appears, read: 0.04% in ethanol, ethanol control 59.3±6.9 landings.
The mark [7] stands for this setting: 1% in ethanol, ethanol control 59.3±6.9 landings.
[8] abbreviates: […] in ethanol, ethanol control 59.3±6.9 landings.
[9] abbreviates: 0.0017 µg/L air, without substance 54.7±3.2.
Where [10] appears, read: 0.017 µg/L air, without substance 54.7±3.2.
The mark [11] stands for this setting: 0.17 µg/L air, without substance 54.7±3.2.
Where [12] appears, read: 1.7 µg/L air, without substance 54.7±3.2.
Where [13] appears, read: 17 µg/L air, without substance 54.7±3.2.
Where [14] appears, read: 0.04% in ethanol, ethanol control 67.1±9.1 landings.
Setting [15] is: 1% in ethanol, ethanol control 67.1±9.1 landings.
Where [16] appears, read: […] in ethanol, ethanol control 67.1±9.1 landings.
Where [17] appears, read: 0.0017 µg/L air, without substance 56.0±3.6.
[18] abbreviates: 0.017 µg/L air, without substance 56.0±3.6.
Setting [19] is: 0.17 µg/L air, without substance 56.0±3.6.
[20] abbreviates: 1.7 µg/L air, without substance 56.0±3.6.
The mark [21] stands for this setting: 17 µg/L air, without substance 56.0±3.6.

For `CC(C=O)Cc1ccc(C(C)C)cc1` (stereo not drawn) [2-methyl-3-(4-propan-2-ylphenyl)propanal], the pest or weed control at 1 µg/cm2, 1 µg/cm2 in the experiment with Ixodes ricinus (setting [3]) came to 7%. In addition, the pest or weed control at 5 µg/cm2, 5 µg/cm2 in the experiment on Ixodes ricinus (setting [4]) came to 46%. The pest or weed control at 25 µg/cm2, 25 µg/cm2 in the experiment with Ixodes ricinus (setting [5]) was found to be 85%. Besides, the “number of mosquitoes landing within 2 minutes on the warm body” value with Aedes aegypti [1] (setting [6]) is on record as 20.0; in the experiment with Aedes aegypti [1] (setting [7]) it was 1.0; with Aedes aegypti [1] (setting [8]), 49.0. Further, the “number of mosquitoes landing within 2 minutes on the warm body, air in the cage saturated with stimulus” value (“number … with stimulus” for short) in the experiment on Aedes aegypti [2] (setting [9]) stood at 26.3; in the experiment with Aedes aegypti [2] (setting [10]), 21.3; in the experiment with Aedes aegypti [2] (setting [11]), 7.8; in the experiment on Aedes aegypti [2] (setting [12]) it was 5.0; in the experiment on Aedes aegypti [2] (setting [13]) it was 7.5.

For `C=Cc1ccc(O)c(OC)c1` [4-ethenyl-2-methoxyphenol], in the experiment with Ixodes ricinus, the pest or weed control at 1 µg/cm2, 1 µg/cm2 was found to be 17%. In addition, the pest or weed control at 5 µg/cm2, 5 µg/cm2 with Ixodes ricinus came to 46%. The pest or weed control at 25 µg/cm2, 25 µg/cm2 in the experiment on Ixodes ricinus was 100%. Besides, the “ticks prevented from climbing up in search of a feeding site” value with Ixodes ricinus (highest concentration of 1% (25 µg/cm^2)) is reported as “all tested ticks”. Moreover, the “number of mosquitoes landing within 2 minutes on the warm body” value was found to be 5.0 with Aedes aegypti [1] (setting [14]), 0.0 in the experiment on Aedes aegypti [1] (setting [15]) and 36.0 with Aedes aegypti [1] (setting [16]). For the same compound, the “number … with stimulus” value in the experiment on Aedes aegypti [2] (setting [17]) is on record as 11.0; in the experiment with Aedes aegypti [2] (setting [18]), 15.0; in the experiment on Aedes aegypti [2] (setting [19]) it was 0.0; in the experiment with Aedes aegypti [2] (setting [20]) it was 3.0; in the experiment on Aedes aegypti [2] (setting [21]), 2.0. Further, in the experiment with Aedes aegypti [2], the “landings in 2 minutes” value is on record as “less than five”.

`CCCCCC1CCC(=O)O1` (stereo not drawn) [5-pentyloxolan-2-one]: the pest or weed control at 1 µg/cm2, 1 µg/cm2 in the experiment with Ixodes ricinus (setting [3]) was 31%. Further, the pest or weed control at 5 µg/cm2, 5 µg/cm2 with Ixodes ricinus (setting [4]) worked out at 83%. In the experiment with Ixodes ricinus (setting [5]), the pest or weed control at 25 µg/cm2, 25 µg/cm2 was 100%. In the experiment on Ixodes ricinus, the “tick response compared with the benchmark IR3535” value was “response similar to the benchmark IR3535”. The “number of mosquitoes landing within 2 minutes on the warm body” value is 16.0 in the experiment on Aedes aegypti [1] (setting [6]), 1.0 in the experiment with Aedes aegypti [1] (setting [7]) and 76.0 in the experiment with Aedes aegypti [1] (setting [8]). The “number … with stimulus” value in the experiment on Aedes aegypti [2] (setting [9]) was determined as 14.7; with Aedes aegypti [2] (setting [10]), 23.0; in the experiment with Aedes aegypti [2] (setting [11]), 15.3; with Aedes aegypti [2] (setting [12]), 7.7; in the experiment on Aedes aegypti [2] (setting [13]), 2.0.

Regarding `CC(C)=CCC/C(C)=C/C=O` [(2E)-3,7-dimethylocta-2,6-dienal], in the experiment with Ixodes ricinus, the pest or weed control at 1 µg/cm2, 1 µg/cm2 came to 15%. Besides, the pest or weed control at 5 µg/cm2, 5 µg/cm2 in the experiment with Ixodes ricinus was 0%. The pest or weed control at 25 µg/cm2, 25 µg/cm2 in the experiment on Ixodes ricinus is 58%. The “number of mosquitoes landing within 2 minutes on the warm body” value worked out at 16.0 with Aedes aegypti [1] (setting [6]), 2.0 in the experiment on Aedes aegypti [1] (setting [7]) and 89.0 in the experiment with Aedes aegypti [1] (setting [8]). Also, the “number … with stimulus” value is on record as 25.3 with Aedes aegypti [2] (setting [9]); 15.7 in the experiment with Aedes aegypti [2] (setting [10]); 15.3 in the experiment with Aedes aegypti [2] (setting [11]); 14.7 in the experiment on Aedes aegypti [2] (setting [12]); 23.0 with Aedes aegypti [2] (setting [13]). For the same compound, the decrease of landings in the experiment with Aedes aegypti [2] (identical at all concentrations tested) is ~ 67%.

For `CCC/C=C1\OC(=O)c2ccccc21` [(3Z)-3-butylidene-2-benzofuran-1-one], in the experiment with Ixodes ricinus, the pest or weed control at 1 µg/cm2, 1 µg/cm2 is 77%. In addition, in the experiment on Ixodes ricinus, the pest or weed control at 5 µg/cm2, 5 µg/cm2 was found to be 100%. Moreover, the pest or weed control at 25 µg/cm2, 25 µg/cm2 with Ixodes ricinus was 100%. Besides, in the experiment on Ixodes ricinus, the “tick response compared with the benchmark IR3535” value was “greater tick repellency”. Besides, the ticks affected entry with Ixodes ricinus (intermediate dose tested (0.2%)) was “all tested ticks were affected”. In the experiment with Ixodes ricinus (lowest dose tested (0.04%)), the “fraction of the ticks affected” value was “more than ¾”. Also, the “number of mosquitoes landing within 2 minutes on the warm body” value stood at 9.0 in the experiment on Aedes aegypti [1] (setting [14]), 1.0 in the experiment with Aedes aegypti [1] (setting [15]) and 54.0 in the experiment on Aedes aegypti [1] (setting [16]). The “number … with stimulus” value in the experiment on Aedes aegypti [2] (setting [17]) worked out at 59.0; in the experiment on Aedes aegypti [2] (setting [18]), 31.5; in the experiment on Aedes aegypti [2] (setting [19]), 17.0; in the experiment on Aedes aegypti [2] (setting [20]), 11.0; with Aedes aegypti [2] (setting [21]) it was 37.0. This compound also yielded a repulsion with Aedes aegypti [2] (doses of 1.7 and/or 17 µg/L in air) below 90%.

Consider `C=C(C)[C@@H]1CC=C(C)C(=O)C1` [(5R)-2-methyl-5-prop-1-en-2-ylcyclohex-2-en-1-one], for which the pest or weed control at 1 µg/cm2, 1 µg/cm2 with Ixodes ricinus is 50%. Also, the pest or weed control at 5 µg/cm2, 5 µg/cm2 in the experiment with Ixodes ricinus is 17%. In the experiment on Ixodes ricinus, the pest or weed control at 25 µg/cm2, 25 µg/cm2 turned out to be 57%. Besides, the “number of mosquitoes landing within 2 minutes on the warm body” value is listed as 16.0 in the experiment with Aedes aegypti [1] (setting [6]), 3.0 in the experiment on Aedes aegypti [1] (setting [7]) and 24.0 in the experiment on Aedes aegypti [1] (setting [8]). Further, the “number … with stimulus” value in the experiment on Aedes aegypti [2] (setting [9]) was 20.0; in the experiment on Aedes aegypti [2] (setting [10]) it was 27.0; in the experiment on Aedes aegypti [2] (setting [11]) it was 2.0; with Aedes aegypti [2] (setting [12]) it was 2.0; with Aedes aegypti [2] (setting [13]), 2.0.

Turning to `C/C=C/C(=O)C1C(C)=CCCC1(C)C` (stereo not drawn) [(E)-1-(2,6,6-trimethylcyclohex-2-en-1-yl)but-2-en-1-one], the pest or weed control at 1 µg/cm2, 1 µg/cm2 with Ixodes ricinus was determined as 13%. The pest or weed control at 5 µg/cm2, 5 µg/cm2 in the experiment on Ixodes ricinus is 6%. Besides, in the experiment on Ixodes ricinus, the pest or weed control at 25 µg/cm2, 25 µg/cm2 stood at 83%. For the same compound, the results for the “number of mosquitoes landing within 2 minutes on the warm body” value in the experiment with Aedes aegypti [1] (setting [14]), with Aedes aegypti [1] (setting [15]) and in the experiment on Aedes aegypti [1] (setting [16]) were 34.0, 9.0 and 70.0, respectively. The “number … with stimulus” value was 6.0 with Aedes aegypti [2] (setting [17]); 11.0 with Aedes aegypti [2] (setting [18]); 4.0 with Aedes aegypti [2] (setting [19]); 4.0 in the experiment with Aedes aegypti [2] (setting [20]); 1.0 in the experiment on Aedes aegypti [2] (setting [21]). Also, the repulsion result with Aedes aegypti [2] (at all five tested concentrations) is reported as “more than 80%”. Further, in the experiment on Aedes aegypti [2], the “landings in 2 minutes” value is listed as “less than five”.
